# Values of other authors as cited in article PMC10151178 (Brain, 2023).
# Tested on: IIH patients
# From the text: The minimal clinically important change in ICP in those with IIH has yet to be determined.[38] […] In this trial ...
smiles,measurement,setting,value
CC(=O)Nc1nnc(S(N)(=O)=O)s1 [acetazolamide],Magnitude of treatment effect on ICP between trial arms,acetazolamide and diet,5.9 cmCSF
same,Patients who withdrew due to adverse effects,"over a 3-month period, previous randomized controlled trial",48%
